{"source": "patent US9814693B2", "about": "(priority 2012, dated 2017)", "origin": "cited, not measured here", "key": {"CML": {"test_system": "CML", "settings": "first-line"}, "rabbits [1]": {"test_system": "rabbits"}, "[2]": {"settings": "solution in distilled water"}, "Barle's L cells": {"test_system": "Barle's L cells", "settings": "percentage of control cloning efficiency"}, "[3]": {"test_system": "Chinese hamster cell cultures", "settings": "low doses, in vitro"}, "mice [4]": {"test_system": "mice", "settings": "after the start of treatment (time not given); these and previous studies"}, "rabbits [5]": {"test_system": "rabbits", "settings": "i.v. 2.5 and 0.25 mg/kg every second day for 30 or 70 days"}, "mice [6]": {"test_system": "mice"}, "erythrocytes [7]": {"test_system": "erythrocytes"}, "NK/Ly tumor": {"test_system": "NK/Ly tumor", "settings": "NK/Ly tumor-bearing mice"}, "[8]": {"test_system": "intracerebral murine ependymoblastomas", "settings": "intracerebral tumors"}, "erythrocytes [9]": {"test_system": "erythrocytes", "settings": "fresh whole dog blood, 37° C., within 2 hours"}, "[10]": {"settings": "compared with all the diepoxyhexitols"}, "[11]": {"test_system": "Ehrlich ascites tumor cells"}, "L1210 leukemia": {"test_system": "L1210 leukemia", "settings": "mice, early form of L1210 leukemia, various doses"}, "[12]": {"settings": "normal brain and intracerebral tumor tissue"}, "S180 ascites tumors": {"test_system": "S180 ascites tumors", "settings": "S180 ascites tumor"}, "[13]": {"assay": "not given", "remark": "listed apart in the source"}, "[14]": {"settings": "in vivo"}}, "note": "Counter-ions that a name gives are not always drawn.", "data": [{"smiles": "Cc1ccc(NC(=O)c2ccc(CN3CCN(C)CC3)cc2)cc1Nc1nccc(-c2cccnc2)n1", "note": "[Gleevec, imatinib mesylate]", "values": [{"measurement": "estimated overall survival rate", "setting": "CML; CML patients, following two years", "value": 91, "unit": "%"}, {"measurement": "patients with cytogenetic response", "setting": "CML", "value": "up to 60%"}, {"measurement": "patients free of disease worsening", "setting": "CML; following two years", "value": "~90", "unit": "%"}]}, {"smiles": "OC(C1CO1)C(O)C1CO1", "note": "(centres unmarked) [dianhydrogalactitol, 1,2:5,6-Dianhydrogalactitol]", "values": [{"measurement": "animals recovered after treatment", "setting": "Ehrlich ascites tumor", "value": "Fifty"}, {"measurement": "tumor weight inhibition", "setting": "Ehrlich ascites tumor; 0.75 mg/kg (one-sixtieth of the LD50)", "value": 68, "unit": "%"}, {"measurement": "effect on platelet counts", "setting": "rabbits [1]; repeated injections of smaller doses (17×2.5, 17×0.25 mg/kg i.v.)", "value": "no changes in platelet counts"}, {"measurement": "effect on platelets", "setting": "rabbits [1]; single 14.0 mg/kg i.v.", "value": "persistent thromobocytopenia"}, {"measurement": "decrease in the granulocyte count", "setting": "rabbits [1]; single 14.0 mg/kg i.v., disappeared in 30 days", "value": 50, "unit": "%"}, {"measurement": "LD50", "setting": "rabbits [1]; single i.v. dose", "value": 14.0, "unit": "mg/kg"}, {"measurement": "local effect of the solution", "setting": "[2]", "value": "slight, locally irritating effect"}, {"measurement": "concentration giving 50 percent survival (cloning efficiency)", "setting": "Barle's L cells", "value": 4, "unit": "µg/mL"}, {"measurement": "chromosome aberrations", "setting": "[3]", "value": "induced characteristic chromosome aberrations"}, {"measurement": "cytomorphologic effect", "setting": "HeLa cell cultures; 100-μg dose", "value": "complete cellular disintegration"}, {"measurement": "dose dependence of distribution and elimination", "setting": "3 and 6 mg/kg, one dog", "value": "dose-independent"}, {"measurement": "mean Cl", "setting": "dogs, i.v. 3 and 6 mg/kg", "value": 23.4, "unit": "mL/min/kg"}, {"measurement": "mean value of V", "setting": "dogs, i.v. 3 and 6 mg/kg", "value": 0.462, "unit": "L/kg"}, {"measurement": "mean value of VDss", "setting": "dogs, i.v. 3 and 6 mg/kg", "value": 0.779, "unit": "L/kg"}, {"measurement": "mean t1,2,β", "setting": "dogs, i.v. 3 and 6 mg/kg, intact drug in plasma", "value": 26.6, "unit": "min"}, {"measurement": "drug accumulation of five cytostatic hexitol derivatives", "setting": "mice [4]", "value": 0, "unit": "%"}, {"measurement": "most marked alterations", "setting": "rabbits [5]", "value": "cell population reductions (especially of the myeloid elements) in the bone marrow"}, {"measurement": "atrophy of the spleen and lymph nodes, compared with dibromodulcitol", "setting": "mice [6]; acute toxicity", "value": "more marked"}, {"measurement": "time of death, compared with dibromodulcitol", "setting": "mice [6]; acute toxicity", "value": "died earlier"}, {"measurement": "symptoms at the LD50", "setting": "mice [6]; animals treated with the LD50 (15 mg/kg)", "value": "gastrointestinal symptoms (including weight loss) were dominant"}, {"measurement": "LD80", "setting": "mice [6]; mice, single dose", "value": 18, "unit": "mg/kg"}, {"measurement": "LD50", "setting": "mice [6]; mice, single dose, survivors observed 21 days", "value": 15, "unit": "mg/kg"}, {"measurement": "initially present drug remaining with the erythrocytes", "setting": "erythrocytes [7]; after dialysis for 14 hours", "value": 36, "unit": "%"}, {"measurement": "initially erythrocyte-bound drug lost to the dialysis medium", "setting": "erythrocytes [7]; within 2 hours, pH 7.4, 37° C.", "value": 50, "unit": "%"}, {"measurement": "death, time after injection", "setting": "beagle dogs; dog 1, 6 mg/kg i.v. on day 8 after 3 mg/kg on day 1", "value": 7, "unit": "days"}, {"measurement": "death, time after administration", "setting": "beagle dogs; dog 2, 6 mg/kg i.v.", "value": 12, "unit": "days"}, {"measurement": "doses at which toxicity occurs", "setting": "beagle dogs; dog, i.v.", "value": "greater than 3 mg/kg"}, {"measurement": "findings associated with death", "setting": "beagle dogs; dogs given 6 mg/kg i.v.", "value": "bone marrow hypoplasia, leucopenia, and thrombocytopenia"}, {"measurement": "changes in the parenchymal organs", "setting": "rats; single 10, 5 or 2.5 mg/kg dose, 1 hour to 21 days", "value": "No changes"}, {"measurement": "LD50", "setting": "rats; single dose", "value": 10, "unit": "mg/kg"}, {"measurement": "increase in lifespan", "setting": "NK/Ly tumor", "value": 200, "unit": "%"}, {"measurement": "antitumor activity", "setting": "[8]", "value": "activity"}, {"measurement": "incubated dose bound to erythrocytes", "setting": "erythrocytes [9]", "value": 37.7, "unit": "%"}, {"measurement": "chemical stability", "setting": "[10]", "value": "most chemically stable"}, {"measurement": "multinucleated cells, compared with mannitol mustard or dibromodulcitol", "setting": "[11]; Ehrlich ascites tumor cells", "value": "more frequently"}, {"measurement": "time of earliest detectable ultrastructural effects", "setting": "[11]; larger dose (7.5 mg/kg i.p.), after administration", "value": 3, "unit": "h"}, {"measurement": "time at which ultrastructural effect could be detected", "setting": "[11]; smaller doses (3.7 mg/kg i.p.), after treatment", "value": "72 to 96", "unit": "h"}, {"measurement": "prolongation of lifespan", "setting": "L1210 leukemia", "value": "50%-200%"}, {"measurement": "blood-brain barrier passage", "setting": "[12]", "value": "rapidly crosses the blood-brain barrier"}, {"measurement": "animals recovered after treatment", "setting": "S180 ascites tumors", "value": "Fifty"}]}, {"smiles": "O[C@H]([C@H](O)[C@@H](O)CBr)[C@H](O)CBr", "note": "[dibromodulcitol]", "values": [{"measurement": "effect on the tumor", "setting": "Ehrlich ascites tumor; doses equitoxic to 0.75 mg/kg dianhydrogalactitol", "value": "no effects"}, {"measurement": "concentration giving 50 percent survival (cloning efficiency)", "setting": "Barle's L cells", "value": 75, "unit": "µg/mL"}, {"measurement": "mitotic index", "setting": "HeLa cell cultures; 10-μg dose, untreated control 2.9%", "value": 0}, {"measurement": "drug accumulation of five cytostatic hexitol derivatives", "setting": "mice [4]", "value": 62, "unit": "%"}, {"measurement": "solubility in water", "setting": "[13]", "value": "hardly soluble in water"}, {"measurement": "increase in lifespan", "setting": "NK/Ly tumor", "value": 90, "unit": "%"}, {"measurement": "prolongation of lifespan", "setting": "L1210 leukemia", "value": 40, "unit": "%"}, {"measurement": "relative effectiveness", "setting": "Harding-Passey melanoma", "value": "more effective than dianhydrogalactitol"}, {"measurement": "absorption by the oral route", "setting": "[14]", "value": "rapid and fairly complete"}]}, {"smiles": "CS(=O)(=O)OC[C@@H](O)[C@@H](O)[C@H](O)[C@H](O)COS(C)(=O)=O", "note": "[mannitol myleran]", "values": [{"measurement": "drug accumulation of five cytostatic hexitol derivatives", "setting": "mice [4]", "value": 45, "unit": "%"}]}]}
